Key:
mPTP [1] = assay: mPTP activity (Ca2+ retention) assay in isolated rat liver mitochondria; assay type: biochemical; conditions: examples tested by different contract research organisations, believed comparable
How it was run: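 pIC50 was taken from Fluo5N fluorescence at 10 min after a 75 μM CaCl2 bolus, scaled between DMSO (0%) and 5 μM cyclosporin A (100%). Compounds, ten half-log concentrations from 30 μM to 1 nM final, sat 10 min at RT with fresh female Sprague Dawley rat liver mitochondria energized by succinate plus rotenone.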

mPTP [2] = assay: mPTP activity assay in isolated rat brain mitochondria; assay type: biochemical; conditions: fluorescence at 10 min timepoint
How it was run: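 Fresh brain mitochondria from female Sprague Dawley rats, digitonin-washed, in pH 7.4 mannitol/MOPS/KCl buffer with pyruvate, malate, ADP, oligomycin A and 2 μM Fluo5N. Preincubated with compounds 10 min at RT. Fluo5N fluorescence then read every 3 sec for 10 min on FLIPR Tetra.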

SMILES | mPTP Rat liver pIC50 (mPTP [1]) | mPTP Rat brain pIC50 (mPTP [2])
CC(NC(=O)c1nn(C)c(=O)[nH]1)C1(Cc2ccccc2)CCC1 (centres unmarked) [Example 23, N-(1-(1-benzylcyclobutyl)ethyl)-1-methyl-5-oxo-4,5-dihydro-1H-1,2,4-triazole-3 carboxamide] | 6.64 | 7.37
CC(c1ccccc1)C1(CNC(=O)c2nn(C)c(=O)[nH]2)CCC1 (centres unmarked) [Example 25, 1-methyl-5-oxo-N-((1-(1-phenylethyl)cyclobutyl)methyl)-4,5-dihydro-1H-1,2,4-triazole-3-carboxamide] | 6.42 | 7.37
COC(c1ccccc1)C1(CNC(=O)c2nn(C)c(=O)[nH]2)CCC1 (centres unmarked) [Example 28, N-((1-(methoxy(phenyl)methyl)cyclobutyl)methyl)-1-methyl-5-oxo-4,5-dihydro-1H-1,2,4-triazole-3-carboxamide] | 5.96 | 6.73
Cc1ccccc1CC1(CNC(=O)c2nn(C)c(=O)[nH]2)CCC1 [Example 29, 1-methyl-N-((1-(2-methylbenzyl)cyclobutyl)methyl)-5-oxo-4,5-dihydro-1H-1,2,4-triazole-3-carboxamide] | 6.34 | 7.84
Cn1nc(C(=O)NCC2(Cc3ccccc3Cl)CCC2)[nH]c1=O [Example 30, N-((1-(2-chlorobenzyl)cyclobutyl)methyl)-1-methyl-5-oxo-4,5-dihydro-1H-1,2,4-triazole-3-carboxamide] | 6.20 | 7.63
Cn1nc(C(=O)NCC(C)(C)Cc2ccccc2)[nH]c1=O [Example 31, N-(2,2-dimethyl-3-phenylpropyl)-1-methyl-5-oxo-4,5-dihydro-1H-1,2,4-triazole-3-carboxamide] | 6.48 | 7.37
CC(CNC(=O)c1nn(C)c(=O)[nH]1)Cc1ccccc1 (centres unmarked) [Example 32, 1-methyl-N-(2-methyl-3-phenylpropyl)-5-oxo-4,5-dihydro-1H-1,2,4-triazole-3-carboxamide] | 5.76 | 6.79
Cn1nc(C(=O)NCC2(Cc3ccccc3)CC2)[nH]c1=O [Example 33, N-((1-benzylcyclopropyl)methyl)-1-methyl-5-oxo-4,5-dihydro-1H-1,2,4-triazole-3-carboxamide] | 5.63 | 6.51
CCC(NC(=O)c1nn(C)c(=O)[nH]1)C(C)(C)Cc1ccccc1 (centres unmarked) [Example 34, N-(2,2-dimethyl-1-phenylpentan-3-yl)-1-methyl-5-oxo-4,5-dihydro-1H-1,2,4-triazole-3-carboxamide] | 5.82 | 7.32
Cn1nc(C(=O)NC(C(F)(F)F)C(C)(C)Cc2ccccc2)[nH]c1=O (centres unmarked) [Example 35, 1-methyl-5-oxo-N-(1,1,1-trifluoro-3,3-dimethyl-4-phenylbutan-2-yl)-4,5-dihydro-1H-1,2,4-triazole-3-carboxamide] | 5.23 | 6.86
Cn1nc(C(=O)NCC(C)(C)Cc2ccccc2Br)[nH]c1=O [Example 36, N-(3-(2-bromophenyl)-2,2-dimethylpropyl)-1-methyl-5-oxo-4,5-dihydro-1H-1,2,4-triazole-3-carboxamide] | 5.28 | 7.05
Cn1nc(C(=O)NCC2(Cc3ccccc3Br)CCC2)[nH]c1=O [Example 37, N-((1-(2-bromobenzyl)cyclobutyl)methyl)-1-methyl-5-oxo-4,5-dihydro-1H-1,2,4-triazole-3-carboxamide] | 5.79 | 7.61
CC(NC(=O)c1nn(C)c(=O)[nH]1)C(C)(C)Cc1ccccc1 (centres unmarked) [Example 38, N-(3,3-dimethyl-4-phenylbutan-2-yl)-1-methyl-5-oxo-4,5-dihydro-1H-1,2,4-triazole-3-carboxamide] | 6.14 | 7.30
CCC(CNC(=O)c1nn(C)c(=O)[nH]1)Cc1ccccc1 (centres unmarked) [Example 40, N-(2-benzylbutyl)-1-methyl-5-oxo-4,5-dihydro-1H-1,2,4-triazole-3-carboxamide] | 6.29 | 7.50
Cn1nc(C(=O)NCC(C)(CO)Cc2ccccc2)[nH]c1=O (centres unmarked) [Example 41, N-(2-benzyl-3-hydroxy-2-methylpropyl)-1-methyl-5-oxo-4,5-dihydro-1H-1,2,4-triazole-3-carboxamide] | 5.25 | 6.38
CC(O)C(C)(CNC(=O)c1nn(C)c(=O)[nH]1)Cc1ccccc1 (centres unmarked) [Example 42, N-(2-benzyl-3-hydroxy-2-methylbutyl)-1-methyl-5-oxo-4,5-dihydro-1H-1,2,4-triazole-3-carboxamide] | 5.27 | 6.26
COC(CNC(=O)c1nn(C)c(=O)[nH]1)Cc1ccccc1 (centres unmarked) [Example 43, N-(2-methoxy-3-phenylpropyl)-1-methyl-5-oxo-4,5-dihydro-1H-1,2,4-triazole-3-carboxamide] | 5.03 | 6.81

SMILES | mPTP Rat liver pIC50 (mPTP [1]) | mPTP Rat brain pIC50 (mPTP [2])
CCC(C)(CNC(=O)c1nn(C)c(=O)[nH]1)Cc1ccccc1 (centres unmarked) [Example 44, N-(2-benzyl-2-methylbutyl)-1-methyl-5-oxo-4,5-dihydro-1H-1,2,4-triazole-3-carboxamide] | 6.23 | 7.41
O=C(NCC1(Cc2ccccc2)CCCCC1)c1cncc(=O)[nH]1 [Example 47, N-((1-benzylcyclohexyl)methyl)-6-oxo-1,6-dihydropyrazine-2-carboxamide] | 4.71 | 6.91
O=C(NCC1(Cc2ccccc2)CC(F)(F)C1)c1cncc(=O)[nH]1 [Example 48, N-((1-benzyl-3,3-difluorocyclobutyl)methyl)-6-oxo-1,6-dihydropyrazine-2-carboxamide] | 4.56 | 5.99
O=C(NCC1(Cc2cccc(F)c2)CCC1)c1cncc(O)n1 [Example 49, N-((1-(3-fluorobenzyl)cyclobutyl)methyl)-6-hydroxypyrazine-2-carboxamide] | 4.56 | 7.44
O=C(NCC1(Cc2ccc(F)cc2)CCC1)c1cncc(O)n1 [Example 50, N-((1-(4-fluorobenzyl)cyclobutyl)methyl)-6-hydroxypyrazine-2-carboxamide] | 4.66 | 7.23
Cn1nc(C(=O)NCC(Cc2ccccc2)C2CCC2)[nH]c1=O (centres unmarked) [Example 51, N-(2-cyclobutyl-3-phenylpropyl)-1-methyl-5-oxo-4,5-dihydro-1H-1,2,4-triazole-3-carboxamide] | 5.62 | 6.84
CC(c1ccc(F)cc1F)C1(CNC(=O)c2nn(C)c(=O)[nH]2)CCC1 (centres unmarked) [Example 52, N-((1-(1-(2,4-difluorophenyl)ethyl)cyclobutyl)methyl)-1-methyl-5-oxo-4,5-dihydro-1H-1,2,4-triazole-3-carboxamide] | 6.41 | 7.64
Cn1nc(C(=O)NCC(Cc2ccccc2)C2CC2)[nH]c1=O (centres unmarked) [Example 53, N-(2-cyclopropyl-3-phenylpropyl)-1-methyl-5-oxo-4,5-dihydro-1H-1,2,4-triazole-3-carboxamide] | 6.46 | 7.46
CC(C)(CNC(=O)c1ccc(=O)[nH]n1)Cc1ccccc1 [Example 56] | 5.76 | 6.73
CC(C)(CNC(=O)c1ccc2oc(=O)[nH]c2c1)Cc1ccccc1 [Example 57] | 5.43 | 6.25
O=C(NCC1(Cc2ccccn2)CCC1)c1cncc(=O)[nH]1 [Example 62, 6-oxo-N-((1-(pyridin-2-ylmethyl)cyclobutyl)methyl)-1,6-dihydropyrazine-2-carboxamide] | 4.85 | 5.16
Cc1n[nH]c(C(=O)NCC2(Cc3ccccc3)CCC2)n1 [Example 64, N-((1-benzylcyclobutyl)methyl)-3-methyl-1H-1,2,4-triazole-5-carboxamide] | <4.52 | 4.64
Cn1nc(C(=O)NCC(Cc2cccc(F)c2)C2CC2)[nH]c1=O (centres unmarked) [Example 78, N-(2-Cyclopropyl-3-(3-fluorophenyl)propyl)-1-methyl-5-oxo-4,5-dihydro-1H-1,2,4-triazole-3-carboxamide] | 6.59 | 7.28
Cn1nc(C(=O)NCC2(Cc3cccc(Cl)c3)CCC2)[nH]c1=O [Example 79, N-((1-(3-Chlorobenzyl)cyclobutyl)methyl)-1-methyl-5-oxo-4,5-dihydro-1H-1,2,4-triazole-3-carboxamide] | 6.39 | 7.59
CCC(CNC(=O)c1nn(C)c(=O)[nH]1)Cc1cccs1 (centres unmarked) [Example 80, 1-Methyl-5-oxo-N-(2-(thiophen-2-ylmethyl)butyl)-4,5-dihydro-1H-1,2,4-triazole-3-carboxamide] | 5.77 | 6.29
Cn1nc(C(=O)NCC2(Cc3cc(F)ccc3F)CCC2)[nH]c1=O [Example 81, N-((1-(2,5-Difluorobenzyl)cyclobutyl)methyl)-1-methyl-5-oxo-4,5-dihydro-1H-1,2,4-triazole-3-carboxamide] | 6.85 | 6.51
Cc1ccc(F)c(CC2(CNC(=O)c3nn(C)c(=O)[nH]3)CCC2)c1 [Example 83, N-((1-(2-Fluoro-5-methylbenzyl)cyclobutyl)methyl)-1-methyl-5-oxo-4,5-dihydro-1H-1,2,4-triazole-3-carboxamide] | 6.04 | 7.27
